Holding throughout (type): in vivo, patients
Data set [1] concerns fungal elements (KOH) in nail specimens. As to the kind of experiment: Clinical trial in toenail onychomycosis: KOH examination for fungal elements in nail specimens. As to conditions: 10 weeks following completion of treatment. The procedure:
(§1) A clinical trial was conducted to evaluate delivery of terbinafine HCl with an iontophoretic device according to an aspect of the present invention in patients with toenail onychomycosis. 38 patients suffering from distal and lateral subungual toenail onychomycosis were enrolled into the study and were divided randomly into group A (20 subjects) and group B (18 subjects). Onychomycosis was confirmed by both KOH examination and mycological culture, wherein samples were taken from the distal parts of the nail. Nail samples were divided, one part being used for direct KOH examination and the second part for fungal culture using Sabouraud's Dextrose agar (Novamed, Jerusalem, Israel). The identification of the fungus was done on the basis of morphologic characteristics. Group A was tested with 1% terbinafine HCl and an iontophoretic patch using a constant current density of 100 μA/cm^2. Group B was tested with 1% terbinafine HCl without iontophoresis. Treatment period was overnight wear, every day, five days per week, for 4 weeks. During the treatment period visits were conducted every 10 days (visits 2-4). The follow-up period was 10 weeks from the end of treatment (visit 5). At each visit nail photography and KOH examination were performed. […] Terbinafine content in affected nail samples was determined by clipping nails at visits 4 & 5. […] The eluted solution was analysed by HPLC.

Data set [2] has as its system distal and lateral subungual toenail onychomycosis. Put plainly: Clinical trial in toenail onychomycosis: healthy toenail growth. The procedure:
as §1

Data set [3] in a line: Clinical trial: safety and tolerability of iontophoretic terbinafine delivery. As to conditions: terbinafine delivered into the nail with the iontophoretic device, nail onychomycosis. The procedure: as §1
The nature of data set [4]: Terbinafine content in clipped nail samples by HPLC. The procedure:
Group A was tested with 1% terbinafine HCl and an iontophoretic patch using a constant current density of 100 μA/cm^2. Group B was tested with 1% terbinafine HCl without iontophoresis. Treatment period was overnight wear, every day, five days per week, for 4 weeks. During the treatment period visits were conducted every 10 days (visits 2-4). The follow-up period was 10 weeks from the end of treatment (visit 5). At each visit nail photography and KOH examination were performed. Routine blood test; complete blood count and liver functions tests were performed at the before study initiation, at the end of the treatment and at the end of the follow-up period. Terbinafine content in affected nail samples was determined by clipping nails at visits 4 & 5. Nails were then weighed and cut into symmetric shapes in order to estimate their area. Symmetric shapes of nails were then cut into small pieces and inserted into tubes with 0.5 ml DDW. Subsequently, methanol 0.5 ml was added and tubes were sonicated. The eluted solution was analysed by HPLC.

Structures can show the parent of a compound that is named as a salt.

For `CN(C/C=C/C#CC(C)(C)C)Cc1cccc2ccccc12` [terbinafine, terbinafine HCl], the “percentage of patients having fungal elements (KOH) in nail specimens” value in data set [1] (active group A (iontophoretic patch, 100 μA/cm^2)) amounted to 15%; in data set [1] (passive group B (without iontophoresis)), 53%. The “percentage of patients having healthy toenail growth above 1.5 mm at the end of treatment” value in data set [2] (group A: 1% terbinafine HCl with iontophoretic patch, constant current density 100 μA/cm^2, 4 weeks) is 40%; in data set [2] (passive group B: 1% terbinafine HCl without current, 4 weeks), 11%. For the same compound, the safety and tolerability entry in data set [3] was “safe and well tolerated”. For the same compound, the Terbinafine nail content in data set [4] (end of follow up period (visit 5), active group A (iontophoretic patch)) was 2.41 μg/cm^2; in data set [4] (end of follow up period (visit 5), passive group B (without iontophoresis)), 0.15 μg/cm^2; in data set [4] (visit 4, passive group B (without iontophoresis)) it was 1.34 μg/cm^2.

Source of the values: patent publication US20110060268A1, “NAIL TREATMENT DEVICE” (POWER PAPER LTD., priority 2008, published 2011).
